This is an account of results in article PMC7000209, “Novel small molecule modulators of quorum sensing in avian pathogenic Escherichia coli (APEC)” (Virulence, 2018).

The test system of assay [1] is AI-2 activity of O115. In words: AI-2 bioluminescence indicator assay, APEC O115. The class given is cell-based, avian pathogenic E. coli (APEC) O115. The note with it: Escherichia coli, read-out: % Inhibtion of AI-2 activity, serotype O115, bioluminescence vs DMSO treated control. How it is done:
(§1) Overnight culture of APEC O78 prepared in LB broth was adjusted to an optical density (OD600) of 0.05 (7 × 10^7 CFU/mL) in fresh LB broth. One hundred micro-liters of the culture was transferred to a 96-well plate and 1µL (100 μM final concentration) of the compound was added to each well using a pin tool. Chloramphenicol (40 μg/mL) or kanamycin (30 μg/mL) and 1μL of 100% DMSO were included as controls in each plate. Plates were incubated at 37 °C for 10 h with shaking in a Sunrise^TM Tecan plate reader (Tecan Group Ltd. San Jose, CA, USA) and the growth was kinetically monitored every 30 min by measuring the OD at 600 nm.
(§2) The AI-2 bioluminescence assay was performed as described previously. Briefly, APEC O78 cultures grown in the presence of SMs (see above) were centrifuged at 5000 × g for 10 min, and cell-free culture supernatants were prepared by using a 0.22 µm filter 96 well plate (Millipore). The bioluminescence reporter V. harveyi BB170 (AI-1^+ and AI-2^-) was grown overnight in AB medium at 30 °C aerobically with shaking. The overnight culture was diluted to 1:5000 in fresh AB medium and incubated at 30 °C for 3 h. Following incubation, 180 μL of the V. harveyi BB170 culture was distributed into each well of a 96-well plate and mixed with 20 µL of the cell free culture supernatant, the plate was then incubated at 30 °C for 2.5 h in the dark and the bioluminescence was measured using in vivo imaging system (IVIS Lumina Series III, PerkinElmer, USA). […] Cell-free culture supernatants collected from overnight cultures of V. harveyi BB120 (AI-1^+andAI-2^+) and E. coli DH5α (a strain lacks AI-2) were used as controls. Bioluminescence of SMs treated culture supernatants were compared to DMSO treated control. The Z-score was calculated to evaluate the quality of the bioluminescence screening. Four independent experiments were conducted for the 69 compounds that inhibited ≥ 75% of the AI-2 mediated bioluminescence and the average inhibition percentage was calculated.
(§3) The selected compounds were also tested for inhibition of AI-2 production in other APEC serotypes such as O1, O2, O8, O15, O18, O35, O109, and O115 that are commonly implicated in colibacillosis using the same procedure described above.

For assay [2], the system named is APEC O78 biofilm formation. In words: Biofilm assay (crystal violet). The class given is cell-based, avian pathogenic E. coli (APEC) O78. Conditions: 48 h; for inhibition at 100 µM: Escherichia coli, crystal violet OD550 vs DMSO control, read-out: reduction of APEC O78 biofilm formation. How it is done: Effect of the selected AI-2 inhibitors on biofilm formation was assessed using the crystal violet (CV) assay. Briefly, APEC O78 was grown in LB broth in the presence of 100 µM of each compound in a 96-well plate at 37 °C for 10 h. The culture was then diluted 1:100 in fresh LB broth. The biofilm assay was performed in a 96-well plate containing 150 µL of the diluted culture and 100 µM of each compound. The plate was then incubated aerobically without shaking at 37 °C for 48 h, washed twice with PBS to remove the non-adherent cells and stained with 200 µL of 0.1% CV in water at room temperature for 10 min. The plate was washed with PBS and biofilm was quantified by measuring the absorbance at 550 nm after solubilizing the CV in 200 μL of 30% acetic acid in water for 15 min.

Assay [3] concerns AI-2 activity of O109. In words: AI-2 bioluminescence indicator assay, APEC O109. The note with it: Escherichia coli, read-out: % Inhibtion of AI-2 activity, serotype O109, bioluminescence vs DMSO treated control. The class given is cell-based, avian pathogenic E. coli (APEC) O109. How it is done: as §1, §2, §3
Assay [4] has as its system AI-2 activity of O8. In words: AI-2 bioluminescence indicator assay, APEC O8. The note with it: Escherichia coli, read-out: % Inhibtion of AI-2 activity, serotype O8, bioluminescence vs DMSO treated control. The class given is cell-based, avian pathogenic E. coli (APEC) O8. On the procedure:
as §1, §2, §3

Assay [5] relates to AI-2 activity of APEC O1. In words: AI-2 bioluminescence indicator assay, APEC O1. Type of assay: cell-based, avian pathogenic E. coli (APEC) O1. The note with it: Escherichia coli, read-out: % Inhibtion of AI-2 activity, serotype O1, bioluminescence vs DMSO treated control. How it is done: as §1, §2, §3
The test system of assay [6] is AI-2 activity of APEC O78. In words: AI-2 bioluminescence indicator assay (V. harveyi BB170), APEC O78 supernatant. The class given is cell-based, avian pathogenic E. coli (APEC) O78. Conditions: Escherichia coli, read-out: % Inhibtion of AI-2 activity. How it is done:
as §1, §2

For assay [7], the system named is AI-2 activity of O35. In words: AI-2 bioluminescence indicator assay, APEC O35. The note with it: Escherichia coli, read-out: % Inhibtion of AI-2 activity, serotype O35, bioluminescence vs DMSO treated control. Type of assay: cell-based, avian pathogenic E. coli (APEC) O35. On the procedure: as §1, §2, §3
Assay [8] has as its system APEC O2 in HD-11 cells. In words: Intracellular survival assay, APEC O2 in HD-11 cells. The class given is cell-based, avian pathogenic E. coli (APEC) O2. The note with it: MOI 100, 100 µM, 6 h; for reduction of intracellular survival of APEC O2: vs DMSO treated control. On the procedure:
The effect of the selected AI-2 inhibitors on the survival of APEC in macrophage cells was tested as described before. Briefly, HD-11 cells was grown as described above and infected with 1 × 10^7 CFU (MOI = 100) of mid-log phase APEC strains (O78, O1 and O2) at 37 °C for 1 h. Cells were washed with PBS and treated with gentamicin (150 μg/mL) for 1 h to kill the extracellular bacteria. The cells were then washed and incubated with 100 µM of each compound in media containing 10 μg/mL of gentamicin at 37 °C for 6 h. Following treatment, cells were washed, lysed with 0.1% Triton X-100 for 5 min, ten-fold serially diluted in PBS and plated on LB agar plates to determine CFUs. Cells treated with chloramphenicol (40 μg/mL) and 1 μL of 100% DMSO were used as controls. The experiment was conducted two times with four replicates in each experiment. Intracellular survival was expressed as the log change of APEC CFUs in the AI-2 inhibitors treated cells.

For assay [9], the system named is AI-2 activity of APEC O78. In words: AI-2 bioluminescence indicator assay (V. harveyi BB170), APEC O78 supernatant. Conditions: Escherichia coli, read-out: AI-2-associated bioluminescence inhibition. Type of assay: cell-based, avian pathogenic E. coli (APEC) O78.

Regarding `COCCN1CCC(CN(Cc2ccncc2)Cc2ccccc2Cl)CC1` [C1, (2-chlorobenzyl){[1-(2-methoxyethyl)-4-piperidinyl]methyl}(4-pyridinylmethyl)amine], the inhibition at 100 µM is 64% in assay [1]; 65% in [3]; 20% in assay [4]; no less than 75% in assay [5]; 84% in assay [6]; 48% in assay [7]. For the same compound, the “effect on APEC O78 biofilm formation (in words)” value in assay [2] (100 µM, vs DMSO treated control) is reported as “no effect”.
With `Cc1ccccc1N1CCN(C2CCCN(C(=O)c3ccc(F)c(Cl)c3)C2)CC1` (stereo not shown) [C2, 1-[1-(3-chloro-4-fluorobenzoyl)-3-piperidinyl]-4-(2-methylphenyl)piperazine], the inhibition at 100 µM in assay [1] was 52%; in assay [2], 52 to 58%; in assay [3], 57%; in [4], 20%; in assay [5] it was 64%; in assay [6], 92%. For the same compound, in assay [7], the inhibition at 100 µM is 55%.
On to `NC(=O)c1ccccc1Nc1cccc(C(F)(F)F)c1` [C3, 2-{[3-(trifluoromethyl)phenyl]amino}benzamide], for which the inhibition at 100 µM in assay [1] was 35%; in assay [2], 63 to 66%; in [3] it was 0%; in [4], 39%; in assay [5] it was 65%; in assay [6], 78%. Further, the inhibition at 100 µM in [7] turned out to be 37%.
With `CS/C(N)=N/N=C/c1cc(C)ccc1O` [C4, methyl N'-(2-hydroxy-5-methylbenzylidene)h ydrazonothiocarbamate], the inhibition at 100 µM is 58% in assay [1]; 63 to 66% in [2]; 67% in assay [3]; 0% in assay [4]; 63% in assay [5]; 75% in assay [6]. For the same compound, in assay [7], the inhibition at 100 µM was 60%. Moreover, the “reduction of intracellular survival of APEC O2” value (“reduction” for short) in [8] is “up to 0.8 logs”.
For the compound `Cc1ccc(CN2CCN(CCCc3ccccc3)CC2)cc1` [C5, 1-(4-methylbenzyl)-4-(3-phenylpropyl)piperazine], the inhibition at 100 µM in assay [1] was 63%; in assay [2], 63 to 66%; in [3], 69%; in assay [4] it was 18%; in assay [5], 46%; in assay [6] it was 83%. For the same compound, the inhibition at 100 µM in [7] is 68%. In addition, in assay [8], the “clearance of intracellular APEC O2” value was determined as 100%. Moreover, in assay [8], the “reduction” value is ~ 3.3 logs.
Turning to `O=[N+]([O-])c1cccc(S(=O)(=O)Nc2ccc(Br)cc2)c1` [C6, N-(4-bromophenyl)-3-nit robenzenesulfonamide], the inhibition at 100 µM is 63 to 66% in assay [2]; 60% in assay [3]; no less than 75% in assay [4]; no less than 75% in assay [5]; 92% in assay [6]. For the same compound, the “clearance of intracellular APEC O2” value in assay [8] is 100%. The “reduction” value in [8] is on record as ~ 3.3 logs.
Consider `O=C(CCN1CCN(c2ccccc2F)CC1)Nc1ccc(Br)cc1` [C7, N-(4-bromophenyl)-3-[4-(2-fluorophenyl)-1-piperazinyl]propanamide], for which the inhibition at 100 µM in [1] is 45%; in assay [2], 63 to 66%; in assay [3], 67%; in assay [4], 2%; in assay [5] it was 47%; in assay [6], 94%. In assay [7], the inhibition at 100 µM is 62%. The “reduction” value in [8] is recorded as “up to 0.8 logs”. The inhibition at 50 µM in assay [9] came to 25%.
In the case of `CCc1ccccc1Nc1nc(-c2c(C)nc3ccccn23)cs1` [C8, N-(2-ethylphenyl)-4-(2-methylimidazo[1,2-a]pyridin-3-yl)-1,3-thiazol-2-amine], the inhibition at 100 µM in [1] was 44%; in assay [2], 52 to 58%; in assay [3], no less than 75%; in [4], 18%; in assay [5] it was 41%; in assay [6] it was 98%. Also, the inhibition at 100 µM in assay [7] was determined as 57%. In [8], the “reduction” value was “up to 0.8 logs”.
As to `Fc1ccc(CN2CCCN(Cc3nc(-c4ccc(C(F)(F)F)cc4)no3)CC2)cc1` [C9, 1-(4-fluorobenzyl)-4-({3-[4-(trifluoromethyl)phenyl]-1,2,4-oxadiazol-5-yl}methyl)-1,4-diazepane], the inhibition at 100 µM was 44% in [1]; 52 to 58% in assay [2]; 66% in assay [3]; 20% in assay [4]; 19% in assay [5]; 79% in assay [6]. The inhibition at 100 µM in assay [7] is 36%. Besides, the “clearance of intracellular APEC O2” value in assay [8] is listed as 100%. In [8], the “reduction” value is ~ 3.3 logs. Also, the inhibition at 50 µM in assay [9] came out at 25%.
Turning to `OCCC1CN(C2CCN(c3ccccc3)CC2)CCN1CCCc1ccccc1` (stereo not shown) [C10, 2-[4-(1-phenyl-4-piperidinyl)-1-(3-phenylpropyl)-2-piperazinyl]ethanol], the inhibition at 100 µM in assay [1] is no less than 75%; in assay [2], 52 to 58%; in assay [3], 57%; in assay [4], 0%; in [5], 64%; in [6] it was 84%. In [7], the inhibition at 100 µM was 47%. In [8], the “clearance of intracellular APEC O2” value came out at 100%. The “reduction” value in assay [8] is ~ 3.3 logs. Besides, the inhibition at 50 µM in assay [9] is 25%.
